# According to patent publication US4665169A, “Carbapenem antibiotics” (Bristol-Myers Company, priority 1985, dated 1987):
# Where two headings read alike, the source gives them in different places.
# Key:
# S. aureus A-9537 [1] = assay: In vitro antibacterial activity, MIC by tube dilution; format: cell-based; settings: overnight 37° C., Nutrient Broth
# P. vulgaris A21559 = assay: as above; format: cell-based; settings: overnight 37° C., Nutrient Broth
# S. pneumoniae A-9585 = assay: as above; format: cell-based; settings: Streptococcus pneumoniae, overnight 37° C., Nutrient Broth
# P. mirabilis A-9900 = assay: as above; format: cell-based; settings: overnight 37° C., Nutrient Broth
# K. pneumoniae A20468 = assay: as above; format: cell-based; settings: Klebsiella pneumoniae, A20468, Lot# 1794-27; overnight 37° C., Nutrient Broth
# [2] = test system: P. aeruginosa (Carbenicillin-resistant) A21213; settings: Lot# 1794-27, overnight 37° C., Nutrient Broth
# P. aeruginosa A-9843A = assay: In vitro antibacterial activity, MIC by tube dilution; format: cell-based; settings: overnight 37° C., Nutrient Broth
# [3] = test system: P. aeruginosa (Carbenicillin-resistant) A21213; assay: microbe, parasite or virus in culture; settings: Pseudomonas aeruginosa
# S. aureus A-9537 [4] = assay: In vitro antibacterial activity, MIC by tube dilution, 50% serum; format: cell-based
# E. cloacae A-9656 = assay: In vitro antibacterial activity, MIC by tube dilution; format: cell-based; settings: Enterobacter cloacae, A9656, Lot# 1794-27; overnight 37° C., Nutrient Broth
# S. marcescens A20019 = assay: as above; format: cell-based; settings: overnight 37° C., Nutrient Broth
# P. aeruginosa A9843a = assay: In vivo activity, 50% protective dose in infected mice; settings: Pseudomonas aeruginosa, im, 120 h, i.m., immediately and 2 hour post-infection, deaths over five days, read-out: PD50 (50% protective dose)
# Experimental: BHI broth (9.0 ml) was inoculated with a loopful of thawed stock suspension of P. aeruginosa A9843a and incubated for 18 hr at 37° C. A volume of 0.5 ml of the 18 hr culture was added to 20 ml BHI broth and incubated for 3 hr. with constant shaking at 37° C. A 1/10,000 dilution of the shaker culture was prepared in 0.4% hog gastric mucin. Mice were infected by the intraperitoneal route with 0.5 ml of the bacterial suspension (corresponding to 6.0×10^4 viable cells/mouse).
# Each mouse received a volume of 0.2 ml intramuscularly. Deaths were recorded over a period of five days following infection at which time the PD50 for the compound was determined by estimation of the 50% end-point using the probit analysis plot.
# S. faecalis A20688 = assay: In vitro antibacterial activity, MIC by tube dilution; format: cell-based; settings: overnight 37° C., Nutrient Broth
# K. pneumoniae A-9664 = assay: as above; format: cell-based; settings: Klebsiella pneumoniae, A9664; Lot# 1794-20; overnight 37° C., Nutrient Broth
# S. pyogenes A-9604 = assay: as above; format: cell-based; settings: overnight 37° C., Nutrient Broth
# Urinary recovery in mice = format: in vivo; settings: mouse, urine; for dose excreted at 3 h: 0-3 hr.
# Experimental: Two groups of mice were used for the urinary recovery evaluation. Each group consisted of four 20 g mice. Prior to dosing (5-10 minutes) one of the groups received an i.p. injestion of a dipeptidase inhibitor (BCH-1) at a level of 10 mg/kg. Following dosing, animals were placed in individual metabolism cages and the urine collected over ice at intervals of 0-3 and 3-6 hr. Animals were fasted overnight and a dextrose-amino acid solution was available ad libitum starting one hour before drug administration through six hours of urine collection. Urine samples were assayed for biological activity using sensitive assay plates containing B. subtilis ATCC 6633.
# E. cloacae A-9659 = assay: In vitro antibacterial activity, MIC by tube dilution; format: cell-based; settings: Enterobacter cloacae, A9659, Lot# 1794-27; overnight 37° C., Nutrient Broth
# E. coli A20341-1 = assay: as above; format: cell-based; settings: Escherichia coli, overnight 37° C., Nutrient Broth
# E. coli A15119 = assay: as above; format: cell-based; settings: Escherichia coli, overnight 37° C., Nutrient Broth
# [5] = Blood levels in mice after intramuscular dosing; format: in vivo; settings: mouse, im, 20 mg/kg; for AUC / Cmax / Tmax / half-life: 20 mg/kg i.m.; for concentration at 10 min: 10 min after 20 mg/kg i.m.; for concentration at 20 min: 20 min after 20 mg/kg i.m.; for concentration at 0.5 h: 30 min after 20 mg/kg i.m.; for concentration at 0.75 h: 45 min after 20 mg/kg i.m.; for concentration at 1 h: 60 min after 20 mg/kg i.m.; for concentration at 1.5 h: 90 min after 20 mg/kg i.m.
# Experimental: For the determination of blood levels, two groups of mice were used. Each group consisted of four 20 g mice. Prior to dosing (5-10 min.) one of the groups received an i.p. injection of a dipeptidase inhibitor (BCH-1) at a level of 10 mg/kg.
# [6] = test system: S. aureus (Penicillin-resistant) A-9606; assay: In vitro antibacterial activity, MIC by tube dilution; format: cell-based; settings: Staphylococcus aureus, Nutrient Broth
# [7] = Half-life in pH 7.4 biological buffer; format: physicochemical; settings: 37° C.
# Experimental: To a cooled (5° C.) solution of (5R,6S)p-nitrobenzyl-6-(1^1 R-hydroxyethyl)-4R-methyl-3-(1-methyl-4-thiatetrahydrothiopyranium)-7-oxo- 1-azabicyclo[3.2.0]hept-2-ene-2-carboxyl-diphenylphosphate (2.40 g, 3.23 mmol) in tetrahydrofuran (240 mL) and 0.05M pH 7.0 phosphate buffer (240 mL) was added ether (240 mL) and 10% Pd/C (2.4 g). The mixture was hydrogenated in a Paar apparatus at 45 psi H2 at 15° C. for 1 hour. The solution was then filtered through glass fiber paper and the catalyst was washed with water (25 mL). The aqueous phase of the filtrate was washed with ether (2×100 mL) and purged under vacuum to remove any trace of organic solvent. The product was purified by reversed phase chromatography on μBondapak C-18 silica gel (100 g) using mixtures of acetonitrile-water as the eluent (10% CH3 CN--H2 O, quantity mL; 0%, 500 mL; 2%, 500 mL; 4%, 500 mL; 10%, 250 mL) to give 1.08 g of impure proudct. After lyophilization, this product and a 0.020 g sample from another experiment (starting from 0.067 mmol of the ester) was purified by hplc (hplc data re: C18 μBondapak, using 5% CH3 CN--H2 O at 4 mL/min, R. I. detector) to give 328 mg. […]
# [8] = test system: various Pseudomonas species; settings: prior art statement; cited from earlier work
structure (smiles),measurement,setting,value
C[C@@H](O)[C@H]1C(=O)N2C(C(=O)[O-])=C(SC3CC[S+](C)CC3)C[C@H]12 (some centres unmarked) [Example 1],MIC,S. aureus A-9537 [1]; Lot# 1794-27,0.008 µg/mL
same,MIC,"S. aureus A-9537 [1]; Staphylococcus aureus, A9537, Lot# 1794-20, read-out: MIC",0.008 µg/mL
same,MIC,P. vulgaris A21559; Lot# 1794-27,0.016 µg/mL
same,MIC,"P. vulgaris A21559; Proteus vulgaris, A21559, Lot# 1794-20, read-out: MIC",0.016 µg/mL
same,MIC,"S. pneumoniae A-9585; A9585, Lot# 1794-20",0.001 µg/mL
same,MIC,"S. pneumoniae A-9585; A9585, Lot# 1794-27",0.002 µg/mL
same,MIC,P. mirabilis A-9900; Lot# 1794-27,0.016 µg/mL
same,MIC,"P. mirabilis A-9900; Proteus mirabilis, A9900, Lot# 1794-20, read-out: MIC",0.016 µg/mL
same,MIC,K. pneumoniae A20468,0.25 µg/mL
same,MIC,[2],0.25 µg/mL
same,MIC,P. aeruginosa A-9843A; Lot# 1794-27,2 µg/mL
same,MIC,"P. aeruginosa A-9843A; Pseudomonas aeruginosa, A9843A, Lot# 1794-20, read-out: MIC",2 µg/mL
same,MIC,[3],0.25 µg/mL
same,MIC,"S. aureus A-9537 [4]; Lot# 1794-27, overnight 37° C.",0.016 µg/mL
same,MIC,"S. aureus A-9537 [4]; Staphylococcus aureus, A9537, Lot# 1794-20, overnight 37° C., read-out: MIC",0.016 µg/mL
same,MIC,E. cloacae A-9656,0.25 µg/mL
same,MIC,S. marcescens A20019; Lot# 1794-27,0.03 µg/mL
same,MIC,"S. marcescens A20019; Serratia marcescens, A20019, Lot# 1794-20, read-out: MIC",0.03 µg/mL
same,ED50,P. aeruginosa A9843a,0.71 mg/kg
same,MIC,"S. faecalis A20688; Enterococcus faecalis, A20688, Lot# 1794-20, read-out: MIC",0.5 µg/mL
same,MIC,S. faecalis A20688; Lot# 1794-27,0.5 µg/mL
same,MIC,K. pneumoniae A-9664,0.03 µg/mL
same,MIC,S. pyogenes A-9604; Lot# 1794-27,0.004 µg/mL
same,MIC,"S. pyogenes A-9604; Streptococcus pyogenes, A9604, Lot# 1794-20, read-out: MIC",0.004 µg/mL
same,dose excreted at 3 h,"Urinary recovery in mice; with BCH-1 10 mg/kg i.p., read-out: Percent Recovered (urine)",67%
same,dose excreted at 3 h,"Urinary recovery in mice; without BCH-1, read-out: Percent Recovered (urine)",44%
same,dose excreted at 6 h,"Urinary recovery in mice; 0-6 hr., with BCH-1 10 mg/kg i.p., read-out: Percent Recovered (urine)",67.1%
same,dose excreted at 6 h,"Urinary recovery in mice; 0-6 hr., without BCH-1, read-out: Percent Recovered (urine)",44.2%
same,dose excreted at 6 h,"Urinary recovery in mice; 3-6 hr., with BCH-1 10 mg/kg i.p., read-out: Percent Recovered (urine)",0.1%
same,dose excreted at 6 h,"Urinary recovery in mice; 3-6 hr., without BCH-1, read-out: Percent Recovered (urine)",0.2%
same,MIC,E. cloacae A-9659,0.25 µg/mL
same,MIC,"E. coli A20341-1; A203411, Lot# 1794-20",0.016 µg/mL
same,MIC,"E. coli A20341-1; A203411, Lot# 1794-27",0.03 µg/mL
same,MIC,"E. coli A15119; A15119, Lot# 1794-20",0.008 µg/mL
same,MIC,"E. coli A15119; A15119, Lot# 1794-27",0.016 µg/mL
same,AUC,[5]; with BCH-1 10 mg/kg i.p.,10900 ng·h/mL
same,Cmax,[5]; with BCH-1 10 mg/kg i.p.,16100 ng/mL
same,Tmax,[5]; with BCH-1 10 mg/kg i.p.,20 min
same,half-life,[5]; with BCH-1 10 mg/kg i.p.,10 min
same,AUC,[5]; without BCH-1,6800 ng·h/mL
same,Cmax,[5]; without BCH-1,15400 ng/mL
same,Tmax,[5]; without BCH-1,10 min
same,half-life,[5]; without BCH-1,9 min
same,concentration at 10 min,[5]; with BCH-1 10 mg/kg i.p.,15400 ng/mL
same,concentration at 10 min,[5]; without BCH-1,15400 ng/mL
same,concentration at 20 min,[5]; with BCH-1 10 mg/kg i.p.,16100 ng/mL
same,concentration at 20 min,[5]; without BCH-1,11400 ng/mL
same,concentration at 0.5 h,[5]; with BCH-1 10 mg/kg i.p.,12600 ng/mL
same,concentration at 0.5 h,[5]; without BCH-1,7200 ng/mL
same,concentration at 0.75 h,[5]; with BCH-1 10 mg/kg i.p.,7400 ng/mL
same,concentration at 0.75 h,[5]; without BCH-1,2900 ng/mL
same,concentration at 1 h,[5]; with BCH-1 10 mg/kg i.p.,3000 ng/mL
same,concentration at 1 h,[5]; without BCH-1,700 ng/mL
same,concentration at 1.5 h,[5]; with BCH-1 10 mg/kg i.p.,300 ng/mL
same,concentration at 1.5 h,[5]; without BCH-1,300 ng/mL
same,MIC,"[6]; Lot# 1794-20, overnight 37° C.",0.016 µg/mL
same,MIC,"[6]; Lot# 1794-27, overnight 37° C.",0.03 µg/mL
"C[C@@H](O)[C@H]1C(=O)N2C(C(=O)[O-])=C(SC3CC[S+](C)CC3)[C@H](C)[C@H]12 (stereo partly drawn) [Example 2, (5R,6S)-6-(1R-hydroxyethyl)-4R-methyl-3-(1-methyl-4-thiatetrahydrothiopyranium)-7-oxo-1-azabicyclo[3.2.0]-hept-2-ene-2-carboxylate]",half-life,[7],1800 min
"C[C@@H](O)[C@H]1C(=O)N2C(C(=O)O)=C(SCCN)C[C@H]12 [Thienamycin, thienamycin]",activity against various Pseudomonas species,[8],notable activity
